We go through 24 compounds from PubChem BioAssay AID330 (DTP/NCI, 2004).

Several values for one entry are separate records, joined by “and”; a condition that tells them apart may be missing. Equal values may be shown once. Inconclusive results and toxic doses are left out.

This assay relates to P388 leukemia ip, CD2F1 mice, survival T/C. Description: NCI In Vivo Anticancer Drug Screen. Data for tumor model P388 Leukemia (intraperitoneal) in CD2F1 (CDF1) mice. The note with it: endpoint: median survival time, higher = longer survival. The procedure, abridged: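 Mice carrying the transplanted tumor received test compound or vehicle. Survival was recorded in each group, and the value is the treated-group measurement divided by that of the vehicle-treated control group.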

The mark [1] stands for this setting: dose: 12.5 mg/kg/injection, schedule: Q01DX009 (ip), vehicle: saline with Tween-80.
Setting [2] is: dose: 25.0 mg/kg/injection, schedule: Q01DX009 (ip), vehicle: saline with Tween-80.
The mark [3] stands for this setting: dose: 50.0 mg/kg/injection, schedule: Q01DX009 (ip), vehicle: saline with Tween-80.
Setting [4] is: dose: 100.0 mg/kg/injection, schedule: Q01DX009 (ip), vehicle: saline with Tween-80.
[5] abbreviates: dose: 60.0 mg/kg/injection, schedule: Q01DX005 (ip), vehicle: saline with Tween-80.
Where [6] appears, read: dose: 120.0 mg/kg/injection, schedule: Q01DX005 (ip), vehicle: saline with Tween-80.
Where [7] appears, read: dose: 25.0 mg/kg/injection, schedule: Q01DX009 (ip), vehicle: saline.
Where [8] appears, read: dose: 50.0 mg/kg/injection, schedule: Q01DX009 (ip), vehicle: saline.
[9] abbreviates: dose: 100.0 mg/kg/injection, schedule: Q01DX009 (ip), vehicle: saline.
The mark [10] stands for this setting: dose: 50.0 mg/kg/injection, schedule: Q01DX005 (ip), vehicle: saline.
[11] abbreviates: dose: 100.0 mg/kg/injection, schedule: Q01DX005 (ip), vehicle: saline.
Setting [12] is: dose: 200.0 mg/kg/injection, schedule: Q01DX005 (ip), vehicle: saline.
Setting [13] is: dose: 50.0 mg/kg/injection, schedule: Q01DX005 (ip), vehicle: Klucel (hydroxypropylcellulose) (HPC).
Where [14] appears, read: dose: 50.0 mg/kg/injection, schedule: Q01DX005 (ip), vehicle: saline + Tween-80 + alcohol.
Setting [15] is: dose: 100.0 mg/kg/injection, schedule: Q01DX005 (ip), vehicle: saline + Tween-80 + alcohol.
Setting [16] is: dose: 12.5 mg/kg/injection, schedule: Q04DX002 (ip), vehicle: saline with Tween-80.

For the compound `O=C(O)c1cc(C(=O)CCCC(=O)c2cc(C(=O)O)c(O)c3ccccc23)c2ccccc2c1O`, the T/C runs as follows: under setting [1], 100 % of control; under setting [2], 100 % of control; under setting [3], 87 % of control; under setting [4], 93 % of control.

Take `COc1cc(CNC(=O)CCCC/C=C\C(C)C)ccc1OC(=O)/C=C/c1ccccc1`: the T/C is 100 % of control (dose: 1.55 mg/kg/injection, schedule: Q01DX009 (ip), vehicle: Klucel (hydroxypropylcellulose) (HPC)); 106 % of control (dose: 3.1 mg/kg/injection, schedule: Q01DX009 (ip), vehicle: Klucel (hydroxypropylcellulose) (HPC)); 103 % of control (dose: 6.2 mg/kg/injection, schedule: Q01DX009 (ip), vehicle: Klucel (hydroxypropylcellulose) (HPC)).

As for `CCOC(=O)c1nc(SC)sc1N`, the T/C is, setting by setting: under setting [5], 95 % of control; under setting [6], 102 % of control.

On to `COC1C=CC23c4cc5c(cc4C(O)OC2CN(C)C3C1)OCO5` (stereo unspecified), for which the T/C (dose: 12.5 mg/kg/injection, schedule: Q01DX009 (ip), vehicle: saline) is 106 % of control; the T/C under setting [7] was 107 % of control; the T/C under setting [8] is 115 % of control; the T/C under setting [9] was 94 % of control.

With `CCOC(=O)C(C)(C)CN(CCCN(C)C)CC(C)(C)C(=O)OCC`, the T/C under setting [3] is 105 % of control and the T/C under setting [4] is 115 % of control.

For the compound `O=CN(CCC(=O)O)c1ccccc1`, the T/C is, setting by setting: under setting [10], 106 % of control; under setting [11], 113 % of control; under setting [12], 107 % of control.

Consider `COc1cc([C@H]2OC[C@H]3[C@@H]2CO[C@@H]3c2ccc(OC(C)=O)c(OC)c2)ccc1OC(C)=O`, for which the T/C (dose: 12.5 mg/kg/injection, schedule: Q01DX005 (ip), vehicle: Klucel (hydroxypropylcellulose) (HPC)) was 96 % of control; the T/C (dose: 25.0 mg/kg/injection, schedule: Q01DX005 (ip), vehicle: Klucel (hydroxypropylcellulose) (HPC)) is 93 % of control; the T/C under setting [13] is 86 % of control.

For the compound `NC(CS(=O)(=O)O)C(=O)O` (stereo unspecified), the T/C reads like this: (dose: 100.0 mg/kg/injection, schedule: Q04DX002 (ip), vehicle: saline) 105 % of control; (dose: 200.0 mg/kg/injection, schedule: Q04DX002 (ip), vehicle: saline) 96 % of control.

As to `COC1=C(C)[C@@H]2CC(=O)O[C@@H]3C[C@H]4[C@H](C)C[C@H](OC5OC(CO)C(O)C(O)C5O)C(=O)[C@]4(C)[C@@H](C1=O)[C@@]32C` (stereo partly specified), the T/C runs as follows: (dose: 5.0 mg/kg/injection, schedule: Q01DX005 (ip), vehicle: Klucel (hydroxypropylcellulose) (HPC)) 103 % of control; (dose: 10.0 mg/kg/injection, schedule: Q01DX005 (ip), vehicle: Klucel (hydroxypropylcellulose) (HPC)) 107 % of control; (dose: 20.0 mg/kg/injection, schedule: Q01DX005 (ip), vehicle: Klucel (hydroxypropylcellulose) (HPC)) 103 % of control.

Consider `CC(C)/[N+]([O-])=N\O`, for which the T/C is 101 % of control (dose: 3.0 mg/kg/injection, schedule: Q01DX005 (ip), vehicle: Klucel (hydroxypropylcellulose) (HPC)); 98 % of control (dose: 6.0 mg/kg/injection, schedule: Q01DX005 (ip), vehicle: Klucel (hydroxypropylcellulose) (HPC)); 100 % of control (dose: 12.0 mg/kg/injection, schedule: Q01DX005 (ip), vehicle: Klucel (hydroxypropylcellulose) (HPC)); 98 % of control (dose: 24.0 mg/kg/injection, schedule: Q01DX005 (ip), vehicle: Klucel (hydroxypropylcellulose) (HPC)).

Regarding `CNC(=S)C#N`, the T/C was 122 % of control (dose: 25.0 mg/kg/injection, schedule: Q01DX005 (ip), vehicle: saline + Tween-80 + alcohol); 111 % of control and 119 % of control under setting [14]; 119 % of control under setting [15].

Regarding `CCOC(=O)/C(C#N)=C/C=C1\C=CC=CN1C`, the T/C runs as follows: under setting [1], 95 % of control; under setting [2], 86 % of control; under setting [3], 90 % of control.

On to `Cc1cc(/C=C/c2ccccc2)nc(/C=C/c2ccccc2)c1`, for which the T/C is 104 % of control under setting [5]; 97 % of control under setting [6]; 100 % of control (dose: 240.0 mg/kg/injection, schedule: Q01DX005 (ip), vehicle: saline with Tween-80).

As to `COc1ccc(C(C)=C2C=C(C(C)(C)C)C(=O)C(C(C)(C)C)=C2)cc1`, the T/C was 111 % of control under setting [14]; 109 % of control under setting [15]; 113 % of control (dose: 200.0 mg/kg/injection, schedule: Q01DX005 (ip), vehicle: saline + Tween-80 + alcohol).

Consider `CC(=O)Nc1cccc2[nH]c3ccccc3c(=O)c12`, for which the T/C reads like this: (dose: 50.0 mg/kg/injection, schedule: Q01DX005 (ip), vehicle: saline with Tween-80) 95 % of control; (dose: 100.0 mg/kg/injection, schedule: Q01DX005 (ip), vehicle: saline with Tween-80) 103 % of control; (dose: 200.0 mg/kg/injection, schedule: Q01DX005 (ip), vehicle: saline with Tween-80) 93 % of control.

For `[Br][Pt+2][Br].[NH-]C(c1ccccc1)C([NH-])c1ccccc1` (stereo unspecified), the T/C under setting [16] is 112 % of control.

For `COc1cc([C@H]2c3cc4c(cc3C[C@H]3COC(=O)[C@@H]32)OCO4)cc(OC)c1OC`, the T/C by setting is: under setting [16], 92 % of control; (dose: 25.0 mg/kg/injection, schedule: Q04DX002 (ip), vehicle: saline with Tween-80) 86 % of control; (dose: 50.0 mg/kg/injection, schedule: Q04DX002 (ip), vehicle: saline with Tween-80) 89 % of control.

Consider `COCC1(C)CCCC2(C)C3=C(CCC(OC(C)=O)C3)CCC12` (stereo unspecified), for which the T/C reads like this: (dose: 100.0 mg/kg/injection, schedule: Q04DX003 (ip), vehicle: suspension in saline) 100 % of control; (dose: 200.0 mg/kg/injection, schedule: Q04DX003 (ip), vehicle: suspension in saline) 102 % of control; (dose: 400.0 mg/kg/injection, schedule: Q04DX003 (ip), vehicle: suspension in saline) 102 % of control.

In the case of `O=C(O)C[n+]1cccc2ccccc21`, the T/C runs as follows: under setting [10], 103 % of control; under setting [11], 93 % of control; under setting [12], 87 % of control.

Consider `COC(=O)c1onc2ccc(Cl)cc12`, for which the T/C (dose: 18.75 mg/kg/injection, schedule: Q01DX005 (ip), vehicle: Klucel (hydroxypropylcellulose) (HPC)) was 99 % of control; the T/C (dose: 37.5 mg/kg/injection, schedule: Q01DX005 (ip), vehicle: Klucel (hydroxypropylcellulose) (HPC)) was 92 % of control; the T/C (dose: 75.0 mg/kg/injection, schedule: Q01DX005 (ip), vehicle: Klucel (hydroxypropylcellulose) (HPC)) was 93 % of control; the T/C (dose: 150.0 mg/kg/injection, schedule: Q01DX005 (ip), vehicle: Klucel (hydroxypropylcellulose) (HPC)) is 95 % of control.

Turning to `CC(C)CC#N`, the T/C under setting [7] is 90 % of control, the T/C under setting [8] is 100 % of control and the T/C under setting [9] is 100 % of control.

For the compound `Cc1ccc(CNc2ccc(I)cc2)cc1`, the T/C by setting is: (dose: 100.0 mg/kg/injection, schedule: Q01DX009 (ip), vehicle: other) 104 % of control; (dose: 200.0 mg/kg/injection, schedule: Q01DX009 (ip), vehicle: other) 95 % of control; (dose: 400.0 mg/kg/injection, schedule: Q01DX009 (ip), vehicle: other) 95 % of control.

As for `O=c1[nH]c(=O)c2[nH]c(N=Nc3ccc(S(=O)(=O)O)cc3)nc2[nH]1`, the T/C was 95 % of control under setting [13]; 99 % of control (dose: 100.0 mg/kg/injection, schedule: Q01DX005 (ip), vehicle: Klucel (hydroxypropylcellulose) (HPC)); 100 % of control (dose: 200.0 mg/kg/injection, schedule: Q01DX005 (ip), vehicle: Klucel (hydroxypropylcellulose) (HPC)).

Turning to `Cc1ccccc1N=Nc1c(O)n(-c2ccc(Cl)cc2)c(=S)n(-c2ccc(Br)cc2)c1=O`, the T/C (dose: 100.0 mg/kg/injection, schedule: Q04DX002 (ip), vehicle: saline with Tween-80) is 96 % of control; the T/C (dose: 200.0 mg/kg/injection, schedule: Q04DX002 (ip), vehicle: saline with Tween-80) is 105 % of control; the T/C (dose: 400.0 mg/kg/injection, schedule: Q04DX002 (ip), vehicle: saline with Tween-80) was 91 % of control.
